A short description of data set [1]: Contact angle and base diameter of surfactant droplets on LC-infused SLIPS. Particulars: 50 μL droplets: 100 mM DBTAB aqueous; 100 μM SDS in PBS. The class given is physicochemical.
For data set [2] the following is noted: air-water interface; cited from earlier work.
Data set [3] deals with S. aureus QS. As to the kind of experiment: Sliding time of droplets of S. aureus WT culture grown with QS inhibitor on LC-infused SLIPS. The class given is cell-based. Particulars: WT S. aureus cultured 24 hours with 1 μM inhibitor; QS mutant ~7 s, WT ~27 s. The protocol:
Characterization of Droplet Sliding Times. Characterization of the sliding times of droplets placed on the surfaces of LC-infused SLIPS was performed in the following general manner. LC-infused SLIPS were placed on a custom-made stage, and the stage was attached to the moving arm of a digital protractor using binding clips. The digital protractor was set at a specified sample angle, and a pre-determined volume of aqueous solution was placed as a droplet on the surface of the liquid-infused surface. Sliding droplets were recorded on digital video, and the time required for droplets to slide 4.0 cm along the surface was measured using a digital timer. […] For each surfactant solution, the sliding times of at least 3-5 droplets were measured and used to calculate an average sliding time with standard deviation. […]
Additional experiments were performed to determine whether LC-infused SLIPS could detect the presence of PSMs in live cultures of S. aureus and, thereby, provide methods to monitor QS in communities of this pathogen in ways analogous to the studies of P. aeruginosa above. For these experiments, a S. aureus WT strain and a QS mutant strain (lacking AgrBD, proteins critical for QS) were cultured for 24 hours and the sliding times of droplets of these cultures on LC-infused SLIPS were measured. […]

Data set [4] concerns S. aureus QS. Particulars: cited from earlier work.

In the case of `CCCCCCCCCCCCOS(=O)(=O)[O-].[Na+]` [SDS, Sodium dodecyl sulfate], the “droplet base diameter on LC-infused SLIPS” value in data set [1] is on record as 4.14±0.02 mm.

As to `CCCCCCCCCCCC[N+](C)(C)C.[Br-]` [DTAB, dodecyl-trimethylammonium bromide], the limiting surface area in data set [2] is 55-63 Å^2.

In the case of AIP-III D4A, the “sliding time of culture droplets” value in the data set with S. aureus QS [3] is listed as roughly 7 s. The “concentration that fully inhibits S. aureus QS” value with S. aureus QS [4] is no less than 1 nM.

Values taken from US12291651B2, “Liquid crystal-infused slippery anti-fouling surfaces” (priority 2021, dated 2025).
